{"source": "patent US20130072863A1", "about": "“CARBON DIOXIDE GAS MIST PRESSURE BATH METHOD AND CARBON DIOXIDE GAS MIST PRESSURE BATH APPARATUS FOR PREVENTING, IMPROVING OR CURING MYOCARDIAL INFARCTION” (priority 2010, published 2013)", "key": {"[1]": {"test_system": "models of myocardial infarction", "assay": "laser tissue blood oxygen monitor measurement in the tissue during pressure bath treatment with four kinds of gases", "format": "in vivo, male wistar rats", "excerpt": "The compositions of gases sealed under pressure in the carbon dioxide gas mist pressure bath means were subjected to the experiments using the four kinds of air mist (AM), CO2 gas (CG), CO2 mist (CM) and 100% oxygen mist (OM). Each of gases was sealed under pressure in the carbon dioxide gas mist pressure bath means, and the treatments were practiced. The numbers of the individuals were 13, 14, 15 and 11 pieces, respectively. Each of the individuals was intubated into male wistar rats aged of 8 weeks under the pentobarbital anesthesia, subjected to the thoracotomy, and was ligated at the coronary left-front rami descendens for making models of myocardial infarction. As to the treatments to these individuals by the four kinds of gases, the laser tissue blood oxygen monitor carried out measures on the pre-treatment (pre), the respective conditions at 10 min, 20 min and 30 min after starting the treatments, and the volume of oxygenated blood (volume of oxyhemoglobin) in the tissue of the individuals under the conditions (post) after finishing the treatments, and the measured results are shown in Table 1. To concretely explain Table 1, the air mist (AM) was experimented on the 13 individuals, and the laser tissue blood oxygen monitor carried out measures on the pre-treatment (pre), the conditions at 10 min, 20 min and 30 min after the treatments and the volumes of oxyhemoglobin of the respective individuals under the conditions (post) after the treatments. Then, “reference values” were made from values when having calculated the average values of the volume of oxyhemoglobin of the 13 individuals measured with the blood flow meter before the treatments, and Table expresses this average values as “1.000”. […] With respect to the average values of the volume of oxyhemoglobin of the respective individuals at 20 min, 30 min after starting the treatments and at the case of post, the above mentioned reference value made the division calculation on the value when having calculated the reference value of the volumes of oxyhemoglobin of the respective individuals, and the values calculated by the division are shown as the average values. […] The measures at this time also performed in each of the treatments as the pre-treatment (pre), the respective conditions of passing 10 min, 20 min and 30 min after starting the treatments, under the conditions (post) after finishing the treatments. In the results of measuring the treatments of the respective gases, “reference values” were made from values when calculating the average values of the volume of deoxyhemoglobin, the average value was expressed with “1.000” in this Table. The above mentioned reference values made the division calculation on the values when calculating the average values of the amount of deoxyhemoglobin of the respective individuals measured by the laser tissue blood oxygen monitor in the pre-treatment (pre) in the respective individuals of the cases of passing 20 min, 30 min and the condition (post) after finishing the treatments, and the values calculated by the division are shown as the average values. […] The measures performed, also at this time, in each of the gas treatments of the pre-treatment (pre), the respective conditions of 10 min, 20 min, 30 min after starting the treatment, and under the conditions (post) after finishing the treatments. In the results of measuring the treatments of the respective gases, making “reference values” from values when having calculated the average values of the volume of total hemoglobin, the average value is expressed with “1.000” in this Table. […]"}, "myocardial infarction": {"test_system": "myocardial infarction", "assay": "measuring the tissue pH over weeks of treatment", "format": "in vivo, wistar rats", "method": "The composition to be sealed under pressure into the carbon dioxide gas mist pressure bath means was experimented in the four kinds of the control (C), non-treated myocardial infarction (NM), CO2 mist (M) and CO2 gas. The number practiced by each of the gases is 8, 9, 8 and 5 individuals. In each of treatments, the pH changes of the individuals are measured in the pre-treatment (Δ1 day), one week after the treatment (Δ1 wks), two week after the treatment (Δ2 wks), and three week after the treatment (Δ3 wks). To explain Table 5 concretely, the control (C) was experimented to 8 individuals, as to the values of pH of the respective individuals are measured 1 week (Δ1 wks) after the treatment, 2 weeks (Δ2 wks) after the treatment, and (Δ3 wks) after the treatment. As to the changing values of pH of the respective individuals, making the reference values of the values when having calculated the average values of pH of 8 individuals measured before the treatment (Δ1 day), Table 5 expresses this reference value as “0.000”. Similarly, also as to three kinds of gases of the non treated myocardial infarction (NM), CO2 mist and CO2 gas (CG), making the reference values of the values when having calculated the average values of the changing values in pH before the treatment (Δ1 day), Table 5 expresses this reference value as “0.000”. The average values of the changing values of pH in the respective individuals measured at 1 week (Δ1 wks) after the treatment, 2 weeks (Δ2 wks) after the treatment and (Δ3 wks) after the treatment are shown with the respective changing amounts from the respective reference values. […] The numbers of the individuals practiced with the gases are 8, 9, 8 and 5 pieces, respectively, providing that the average values of pH are shown as they are pre-treatment (day 1), 1 week (Δ1 wks) after the treatment, 2 weeks (Δ2 wks) after the treatment, and (Δ3 wks) after the treatment."}, "[2]": {"settings": "10 min, relative to pre = 1.000"}, "[3]": {"settings": "20 min, relative to pre = 1.000"}, "[4]": {"settings": "30 min, relative to pre = 1.000"}}, "data": [{"compound": "O=C=O", "note": "[CG, carbon dioxide]", "values": [{"measurement": "StO2 (degree of oxygen saturation in blood in the tissue), average value", "setting": "[1]; [2]", "value": 1.027}, {"measurement": "total Hb (volume of total hemoglobin in the tissue), average value", "setting": "[1]; [2]", "value": 1.002}, {"measurement": "deoxyHb (volume of deoxyhemoglobin in the tissue), average value", "setting": "[1]; 10 min after starting treatment, relative to pre = 1.000", "value": ".974"}, {"measurement": "oxyHb (volume of oxyhemoglobin in the tissue), average value", "setting": "[1]; 10 min after starting treatment, relative to pre-treatment average = 1.000", "value": 1.030}, {"measurement": "StO2 (degree of oxygen saturation in blood in the tissue), average value", "setting": "[1]; [3]", "value": 1.061}, {"measurement": "deoxyHb (volume of deoxyhemoglobin in the tissue), average value", "setting": "[1]; [3]", "value": ".942"}, {"measurement": "total Hb (volume of total hemoglobin in the tissue), average value", "setting": "[1]; [3]", "value": 1.010}, {"measurement": "oxyHb (volume of oxyhemoglobin in the tissue), average value", "setting": "[1]; 20 min after starting treatment, relative to pre = 1.000", "value": 1.074}, {"measurement": "StO2 (degree of oxygen saturation in blood in the tissue), average value", "setting": "[1]; [4]", "value": 1.063}, {"measurement": "deoxyHb (volume of deoxyhemoglobin in the tissue), average value", "setting": "[1]; [4]", "value": ".930"}, {"measurement": "total Hb (volume of total hemoglobin in the tissue), average value", "setting": "[1]; [4]", "value": ".995"}, {"measurement": "amount of oxyhemoglobin, effect of the treatment in words", "setting": "[1]; over the course of treatment (FIG. 11)", "value": "though not significant, increase of the amount of oxyhemoglobin was recognized"}, {"measurement": "StO2, effect of the treatment in words", "setting": "[1]; over the course of treatment (FIG. 17)", "value": "increases until 20 minutes after the treatment starts"}, {"measurement": "oxyHb (volume of oxyhemoglobin in the tissue), average value", "setting": "[1]; post (after finishing treatment), relative to pre = 1.000", "value": 1.051}, {"measurement": "StO2 (degree of oxygen saturation in blood in the tissue), average value", "setting": "[1]; post, relative to pre = 1.000", "value": 1.065}, {"measurement": "deoxyHb (volume of deoxyhemoglobin in the tissue), average value", "setting": "[1]; post, relative to pre = 1.000", "value": ".915"}, {"measurement": "total Hb (volume of total hemoglobin in the tissue), average value", "setting": "[1]; post, relative to pre = 1.000", "value": ".981"}, {"measurement": "tissue pH, average value", "setting": "myocardial infarction; 1 wks after the treatment", "value": 7.168}, {"measurement": "change of tissue pH (ΔpH), average value", "setting": "myocardial infarction; 1 wks after the treatment, change from pre-treatment (1 day) = 0.000", "value": "−.084"}, {"measurement": "tissue pH, average value", "setting": "myocardial infarction; 2 wks after the treatment", "value": 7.340}, {"measurement": "change of tissue pH (ΔpH), average value", "setting": "myocardial infarction; 2 wks, change from pre-treatment = 0.000", "value": ".090"}, {"measurement": "tissue pH, average value", "setting": "myocardial infarction; 3 wks after the treatment", "value": 7.306}, {"measurement": "change of tissue pH (ΔpH), average value", "setting": "myocardial infarction; 3 wks, change from pre-treatment = 0.000", "value": ".050"}, {"measurement": "tissue pH, average value", "setting": "myocardial infarction; pre-treatment (day 1)", "value": 7.254}]}]}
